Test results from ChEMBL document CHEMBL3734711, “Discovery of novel sphingosine kinase 1 inhibitors via structure-based hierarchical virtual screening” (Medchemcomm, 2015).
Activity calls are given as the source filed them. The rule behind the calls is not given here.

Experiments:
Sphingosine kinase 2 = molecular target: T1, Sphingosine kinase 2 (Homo sapiens, UniProt Q9NRA0); test: Inhibition of human recombinant SphK2 preincubated for 5 mins followed by substrate addition measured for 60 mins by plate reader assay
T1 sequence (Q9NRA0 whole entry): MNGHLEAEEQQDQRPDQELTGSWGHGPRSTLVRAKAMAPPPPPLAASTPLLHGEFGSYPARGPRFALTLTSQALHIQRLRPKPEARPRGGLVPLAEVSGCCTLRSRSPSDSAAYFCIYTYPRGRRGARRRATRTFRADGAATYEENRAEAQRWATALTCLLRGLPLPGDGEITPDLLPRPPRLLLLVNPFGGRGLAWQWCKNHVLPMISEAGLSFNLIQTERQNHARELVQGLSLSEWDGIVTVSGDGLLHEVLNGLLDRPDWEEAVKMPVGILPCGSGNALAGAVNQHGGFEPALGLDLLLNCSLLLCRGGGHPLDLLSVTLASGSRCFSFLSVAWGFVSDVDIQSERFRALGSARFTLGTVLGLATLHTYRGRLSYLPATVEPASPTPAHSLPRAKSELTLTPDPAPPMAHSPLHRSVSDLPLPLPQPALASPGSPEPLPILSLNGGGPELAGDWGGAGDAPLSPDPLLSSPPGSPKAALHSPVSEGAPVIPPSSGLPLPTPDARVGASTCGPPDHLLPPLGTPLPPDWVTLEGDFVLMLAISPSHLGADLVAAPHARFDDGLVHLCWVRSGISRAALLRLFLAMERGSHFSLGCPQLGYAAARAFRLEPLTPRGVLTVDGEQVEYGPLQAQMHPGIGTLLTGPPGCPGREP

[1] = molecular target: T2, Sphingosine kinase 2 (Homo sapiens) (UniProt Q9NRA0); test: Inhibition of human recombinant SphK2 at 500 uM preincubated for 5 mins followed by substrate addition measured for 60 mins by plate reader assay
T2 sequence (whole entry): T1 sequence (Q9NRA0 whole entry)

[2] = molecular target: T2, Sphingosine kinase 2 (Homo sapiens); test: Inhibition of human recombinant SphK2 at 50 uM preincubated for 5 mins followed by substrate addition measured for 60 mins by plate reader assay
Sphingosine kinase 1 [3] = molecular target: T3, Sphingosine kinase 1 (Homo sapiens, UniProt Q9NYA1); test: Inhibition of human recombinant SphK1 preincubated for 5 mins followed by substrate addition measured for 60 mins by plate reader assay
Sphingosine kinase 1 [4] = molecular target: T3, Sphingosine kinase 1; test: Inhibition of human recombinant SphK1 at 50 uM preincubated for 5 mins followed by substrate addition measured for 60 mins by plate reader assay
U-937 = test: Antiproliferative activity against human U937 cells after 72 hrs by MTT assay; format: functional, cell-based

T3 sequence (Q9NYA1 whole entry): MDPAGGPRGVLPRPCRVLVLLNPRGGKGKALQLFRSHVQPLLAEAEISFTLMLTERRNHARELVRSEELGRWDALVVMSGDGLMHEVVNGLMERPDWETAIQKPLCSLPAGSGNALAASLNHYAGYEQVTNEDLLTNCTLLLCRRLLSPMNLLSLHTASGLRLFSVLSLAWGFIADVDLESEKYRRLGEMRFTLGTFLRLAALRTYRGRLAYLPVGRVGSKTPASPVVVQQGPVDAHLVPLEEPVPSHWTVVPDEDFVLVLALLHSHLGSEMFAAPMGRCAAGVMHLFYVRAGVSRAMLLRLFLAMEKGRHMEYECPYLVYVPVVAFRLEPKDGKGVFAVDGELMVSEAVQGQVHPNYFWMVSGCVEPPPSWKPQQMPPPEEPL

| IC50 (Sphingosine kinase 2) | inhibition [1] | inhibition [2] | IC50 (Sphingosine kinase 1 [3]) | inhibition (Sphingosine kinase 1 [4]) | Structure (SMILES) | Activity (U-937) |
| --- | --- | --- | --- | --- | --- | --- |
| 62.6 µM | Active | Active | 61.6 µM | > 60% | CCCOc1ccc(N2C(=O)CC(Nc3ccc(CCO)cc3)C2=O)cc1 (configuration not stated) | – |
| 31.3 µM | Active | Active | 40.5 µM | > 60% | CCCCCCCCCCCCCC(=O)Nc1nc2ccccc2[nH]1 | – |
| 17.1 µM | Active | Active | 23.1 µM | > 60% | O=C(N/N=C/c1cccc(OCc2ccccc2)c1)c1cc(O)c(O)c(O)c1 | Dose-dependent effect |
| 16.3 µM | – | – | – | – | CCCCCCCCCCCCC/C=C/[C@@H](O)[C@H](CO)N(C)C [DIMETHYLSPINGOSINE] | – |
